Data from patent US8338414B2, “Immunosuppressive agent and anti-tumor agent comprising heterocyclic compound as active ingredient” (Zenyaku Kogyo KabushikiKaisha, priority 2005, dated 2012).
Read-outs that look alike come from different tables or passages of the source.

Key:
[1] = tested on: MCF-7 cells; assay: Proliferation inhibitory activity on solid tumor cells, MCF-7; assay type: cell-based; conditions: Homo sapiens, MCF7; 72 hours
Description: (§1) Used in the test were MCF-7 cells which were established from human breast cancer and were cultured routinely under the conditions of 37° C. and 5% CO2, in MEM medium supplemented with 10% fetal calf serum, 25 mM of HEPES and 0.1 mg/ml kanamycin. The MCF-7 cells in a logarithmic growth phase were treated with trypsin/EDTA to prepare single cell suspension adjusted to 4.0×10^4 cells/ml in MEM medium (supplemented with 10% fetal calf serum, 25 mM of HEPES and 0.1 mg/ml kanamycin). Test compounds were dissolved in DMSO and diluted with RPMI 1640 medium (supplemented with 10% fetal calf serum, 25 mM of HEPES and 0.1 mg/ml kanamycin) to a concentration of […] to 2.0×10^−9M.
(§2) The cell suspension was filled in a 96-wells microplate at a rate of 0.1 ml per well and was cultured for 24 hours so as to make the cells to adhere to the microplate. Then, it was added with 0.1 ml of the sample solution and cultured at 37° C. for 72 hours in 5% CO2.
(§3) 50% Growth inhibition concentrations (GI50 μM) were calculated from growth inhibitions at various sample concentrations.

[2] = tested on: B16F10 melanoma cells; assay: Proliferation inhibitory activity on solid tumor cells, B16F10; assay type: cell-based; conditions: Mus musculus, B16-F10; 72 hours
Description: as §1, §2, §3
(§4) In the foregoing, when the cells other than MCF-7 are used, instead of adding 10% fetal bovine serum, the following media were used, and the following single cell suspensions were prepared. • PC-3 prostate cancer cells: 10% fetal bovine serum in F12K medium, single cell suspension of 2×10^4 cells; • A549 lung cancer cells: 10% fetal bovine serum in DMEM medium, single cell suspension of 1.5×10^4 cells; • WiDr colon cancer cells: 10% fetal bovine serum in MEM medium, single cell suspension of 3×10^4 cells; • B16F10 melanoma cells: 10% fetal bovine serum in RPMI 1640 medium, single cell suspension of 1×10^4 cells;

[3] = tested on: A549 lung cancer cells; assay: Proliferation inhibitory activity on solid tumor cells, A549; assay type: cell-based; conditions: Homo sapiens, 72 hours
Description: as §1, §2, §3, §4

[4] = tested on: WiDr colon cancer cells; assay: Proliferation inhibitory activity on solid tumor cells, WiDr; assay type: cell-based; conditions: Homo sapiens, 72 hours
Description: as §1, §2, §3, §4

[5] = tested on: PC-3 prostate cancer cells; assay: Proliferation inhibitory activity on solid tumor cells, PC-3; assay type: cell-based; conditions: 72 hours
Description: as §1, §2, §3, §4

[6] = tested on: human peripheral blood mononuclear cells; assay: Proliferation inhibition assay for human peripheral blood mononuclear cells; assay type: cell-based; conditions: Homo sapiens, 72 h; PBMC, anti-CD3 and anti-CD28 antibody, 3 days, Alamar Blue
Description: 4 mL of blood collected from healthy subjects was placed on 3 mL of MonoPoly Resolving Medium, and after centrifugation, the mononuclear cell (PBMC) fraction was collected. After washing with saline, PBMC (1×10^5 cells/mL) was suspended in RPMI 1640 medium (containing 10% fetal bovine serum, 10 mM HEPES, 1 mM pyruvic acid, and 4.5 g/L glucose). Next, after having added an anti-CD28 antibody (1 μg/mL) to the suspension, they were seeded on an anti-human CD3 T cell activation plate (BD Bioscience) at a capacity of 0.135 mL per well. Then, serial dilutions of test substances were added to respective wells, and incubated under conditions of carbon dioxide 5% at a temperature 37° C. After 3 days, Alamar Blue solution was added at 50 μL per well, and after incubation for one day, a fluorescence intensity at 590 nm using an excitation wavelength of 530 nm was determined by Cytoflour 4000 (Applied Biosystems).

[7] = tested on: HL 60 cells; assay: Proliferation inhibitory activity on hematologic neoplasm cells, HL60; assay type: cell-based; conditions: Homo sapiens, HL-60, 72 h; 3 days, Alamar Blue
Description: (§5) Daudi cells (5×10^5 cells/mL), Jurkat cells (5×10^5 cells/mL), THP-1 cells (5×10^5 cells/mL), U 937 cells (5×10^5 cells/mL), and HL 60 cells (5×10^5 cells/mL) suspended in RPMI 1640 medium (containing 10% fetal bovine serum, 10 mM HEPES, 1 mM pyruvic acid, 4.5 g/L glucose, 100 units/mL penicillin, and 0.1 mg/mL streptomycin) were seeded in 96 well plates at a capacity of 0.135 mL per well. Serial dilutions of test substances were added to respective wells at 15 μL/well, and incubated under conditions of carbon dioxide 5% at 37° C. for 3 days. Thereafter, Alamar Blue solution was added at 50 μL, and after incubation for one day, the fluorescence intensity at 590 nm using an excitation wavelength of 530 nm was determined by Cytoflour 4000 (Applied Biosystems).

[8] = tested on: U 937 cells; assay: Proliferation inhibitory activity on hematologic neoplasm cells, U937; assay type: cell-based; conditions: Homo sapiens, U-937, 72 h; 3 days, Alamar Blue
Description: as §5

[9] = tested on: allogeneic mixed lymphocyte reaction; assay: Allogeneic mixed lymphocyte reaction; assay type: cell-based, mouse; conditions: Mus musculus, Lymphocyte; C57BL/6N spleen stimulator cells, BALB/c lymph node responder cells, 86 hours, BrdU
Description: Spleen cells prepared from C57BL/6N female mice (8-10 weeks old, purchased from Charles River Laboratories Japan Inc.) and peripheral lymph node mononuclear cells prepared from BALB/c female mice (8-10 weeks old, purchased from Charles River Laboratories Japan Inc.) were used as stimulator cells and responder cells, respectively. The respective cells were suspended in RPMI 1640 medium (containing 10% fetal bovine serum, 100 units/mL penicillin, and 0.1 mg/mL streptomycin) (with 2×10^6 cells/mL).

[10] = tested on: THP-1 cells; assay: Proliferation inhibitory activity on hematologic neoplasm cells, THP-1; assay type: cell-based; conditions: Homo sapiens, THP-1, 72 h; 3 days, Alamar Blue
Description: as §5

[11] = tested on: Jurkat cells; assay: Proliferation inhibitory activity on hematologic neoplasm cells, Jurkat; assay type: cell-based; conditions: Homo sapiens, Jurkat, 72 h; 3 days, Alamar Blue
Description: as §5

[12] = tested on: fulminant hepatitis; assay: Fulminant hepatitis model (galactosamine and LPS); assay type: in vivo, mouse; conditions: BALB/c mice, galactosamine 800 mg/kg and LPS 110 μg/kg i.p.
Description: BALB/c male mice (7 weeks old, purchased from Charles River Laboratories Japan Inc.) were used in the experiment. After having orally administered the test substances suspended in 5% HPC, galactosamine (800 mg/kg) and LPS (110 μg/kg) were intraperitoneally administered. Then, survival rates at 72 hours after administration were obtained.

[13] = tested on: Rabbit synoviocytes HIG-82; assay: Inhibition assay for proliferation of rabbit synoviocyte; assay type: cell-based; conditions: Oryctolagus cuniculus, 72 h; HIG-82, 3 days, Alamar Blue
Description: Rabbit synoviocytes HIG-82 suspended in HAM medium (containing 10% fetal bovine serum, 25 mM HEPES, and 0.1 mg/mL kanamycin) (with 4×10^4 cells/mL) were seeded in wells of a 96 well plate at 0.135 mL per well. Then, 15 μL of each of serial dilutions of test substances was added to a respective well, and incubated under conditions of carbon dioxide 5% at a temperature 37° C. Alamar Blue solution was added at 50 μL per well on day 0 and day 3, and incubated for one day, and thereafter fluorescence intensity at 590 nm using an excitation wavelength of 530 nm was determined by Cytoflour 4000 (Applied Biosystems).

[14] = tested on: mouse spleen cells; assay: Proliferation inhibition assay for mouse spleen cells; assay type: cell-based; conditions: 72 h, 3 days, Alamar Blue
Description: Spleen cells (2×10^6 cells/mL) prepared from C57BL/6N female mice (8 weeks old, purchased from Charles River Laboratories Japan Inc.) were suspended in RPMI 1640 medium (containing 10% fetal bovine serum, 10 mM HEPES, 1 mM pyruvic acid, 4.5 g/L glucose, 100 units/mL penicillin, and 0.1 mg/mL streptomycin), and seeded in wells of a 96 well plate at 0.225 mL per well. Serial dilutions of test substances were added to respective wells, and then concanavalin A (Con A, 3 μg/mL), lipopolysaccharide (LPS, 100 μg/mL), or an anti-mouse IgM antibody (100 μg/mL) were added. Thereafter, they were incubated under conditions of carbon dioxide 5% at a temperature 37° C. for 3 days. Next, Alamar Blue solution was added at 50 μL per 150 μL, and after having cultured for one day, the fluorescence intensity at 590 nm using an excitation wavelength of 530 nm was determined by Cytoflour 4000 (Applied Biosystems).

[15] = tested on: Daudi cells; assay: Proliferation inhibitory activity on hematologic neoplasm cells, Daudi; assay type: cell-based; conditions: Homo sapiens, Daudi, 72 h; 3 days, Alamar Blue
Description: as §5

[16] = LPS 100 μg/mL, read-out: Inhibition of LPS response
[17] = anti-mouse IgM antibody 100 μg/mL, read-out: Inhibition of Anti-IgM antibody response
[18] = concanavalin A 3 μg/mL, read-out: Inhibition of Con A response

Row | Structure (SMILES) | GI50 [1] [nM] | GI50 [2] [nM] | GI50 [3] [nM] | GI50 [4] [nM] | GI50 [5] [nM] | melting point [°C] | IC50 [6] [nM] | IC50 [7] [nM] | IC50 [8] [nM] | IC50 [9] [nM] | IC50 [10] [nM] | IC50 [11] [nM] | Survival Rate after 72 Hours ([12]; 100 mg/kg oral) [%] | IC50 [13] [nM] | IC50 [14, 16] [nM] | IC50 [14, 17] [nM] | IC50 [14, 18] [nM] | IC50 [15] [nM] | Survival Rate after 72 Hours ([12]; 50 mg/kg oral) [%]
1 | O=C(c1ccco1)N1CCN(c2nc(N3CCOCC3)nc(-n3c(C(F)F)nc4ccccc43)n2)CC1 [Compound 31, 2-(2-Difluoromethylbenzimidazol-1-yl)-4-[4-(2-furoyl)piperazin-1-yl]-6-morpholino-1,3,5-triazine] | 50 | 1510 | 650 | 1430 | 320 | 220 to 222 | – | – | – | – | – | – | – | – | – | – | – | – | –
2 | COCC(=O)N1CCN(c2nc(N3CCOCC3)nc(-n3c(C(F)F)nc4ccccc43)n2)CC1 [Compound 33, 2-(2-Difluoromethylbenzimidazol-1-yl)-4-(4-methoxylacetylpiperazin-1-yl)-6-morpholino-1,3,5-triazine] | < 40 | 2910 | 1050 | 1460 | 510 | 72 to 75 | – | – | – | – | – | – | – | – | – | – | – | – | –
3 | CN(C)C(=O)N1CCN(c2nc(N3CCOCC3)nc(-n3c(C(F)F)nc4ccccc43)n2)CC1 [Compound 32, 2-(2-Difluoromethylbenzimidazol-1-yl)-4-[4-(N,N-dimethylcarbamoyl)piperazin-1-yl]-6-morpholino-1,3,5-triazine] | < 40 | 2140 | 830 | 1330 | 380 | 203 to 205 | – | – | – | – | – | – | – | – | – | – | – | – | –
4 | OCCCN1CCN(c2nc(N3CCOCC3)nc(-n3c(C(F)F)nc4ccccc43)n2)CC1 [Compound 34, 2-(2-Difluoromethylbenzimidazol-1-yl)-4-[4-(3-hydroxypropyl)piperazin-1-yl]-6-morpholino-1,3,5-triazine] | 140 | 2910 | 1380 | 2070 | 550 | – | – | – | – | – | – | – | – | – | – | – | – | – | –
5 | Nc1nc2ccccc2n1-c1nc(N2CCOCC2)nc(N2CCOCC2)n1 [Compound 6, 2-(2-Aminobenzimidazol-1-yl)-4,6-dimorpholino-1,3,5-triazine] | – | – | – | – | – | – | 2080 | > 10000 | > 10000 | 3630 | 5540 | 6620 | 40 | 6350 | 100 to 10000 | 100 to 10000 | 100 to 10000 | 803 | –
6 | Oc1cccc2c1nc(C(F)F)n2-c1nc(N2CCOCC2)cc(N2CCOCC2)n1 [Compound 18, 2-(2-Difluoromethyl-4-hydroxybenzimidazol-1-yl)-4,6-dimorpholinopyrimidine] | – | – | – | – | – | – | – | – | – | – | – | – | 80 | – | – | – | – | – | 50
7 | Cc1cccc2c1nc(C(F)F)n2-c1nc(N2CCOCC2)nc(N2CCOCC2)n1 [Compound 10, 2-(2-Difluoromethyl-4-methylbenzimidazol-1-yl)-4,6-dimorpholino-1,3,5-triazine] | – | – | – | – | – | 259 to 260 | 825 | 1790 | > 10000 | 344 | 794 | > 10000 | – | 6510 | 10000 to 100000 | 100 to 10000 | 100 to 10000 | 160 | –
8 | Oc1cccc2c1nc(C(F)F)n2-c1nc(N2CCOCC2)nc(N2CCOCC2)n1 [Compound 15, 2-(2-Difluoromethyl-4-hydroxybenzimidazol-1-yl)-4,6-dimorpholino-1,3,5-triazine] | – | – | – | – | – | – | 2.91 | 35.8 | 217 | 42.1 | 45.4 | 116 | 0 | 85.6 | – | – | – | 4.92 | 17
